Experimental data from the supplement of paper PMC10307832.

How the values were obtained:
Test in all cases: relative viability (nuclei count vs DMSO), 5 days (fraction); higher = more cells survive
[1] = compound: Cn1cc(-c2cnc3ccc4ccc(CS(=O)(=O)NCc5ccccn5)cc4c(=O)c3c2)cn1 [MK-8033] + Nc1nc2[nH]cc(CCc3ccc(C(=O)N[C@@H](CCC(=O)O)C(=O)O)cc3)c2c(=O)[nH]1 [Pemetrexed] (partner 0.2 µM)
Method in brief: (§1)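 Each reported value is a median over duplicate plates. It expresses relative viability: treated-well nuclei count divided by vehicle-well nuclei count. Lung cancer cell lines in 1536-well plates were dosed by pin tool a day after seeding, alone with one drug or with a fixed anchor-drug dose plus five library-drug doses (not always all listed) in √10 steps, and nuclei were counted after 5 days.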

[2] = compound: CC[C@@H](C)CNCC(=O)N1CCC2=C([C@@H]1COC3=CC=CC(=C3)C)C=CS2 [RU-SKI 43] + CC1(C)CCC(c2ccc(Cl)cc2)=C(CN2CCN(c3ccc(C(=O)NS(=O)(=O)c4ccc(N[C@H](CCN5CCOCC5)CSc5ccccc5)c(S(=O)(=O)C(F)(F)F)c4)cc3)CC2)C1 [Navitoclax] (partner 0.5 µM)
Method in brief: as §1

[3] = compound: CCc1c2c(nc3ccc(OC(=O)N4CCC(N5CCCCC5)CC4)cc13)-c1cc3c(c(=O)n1C2)COC(=O)[C@]3(O)CC [Irinotecan] + CC1(C)CCC(c2ccc(Cl)cc2)=C(CN2CCN(c3ccc(C(=O)NS(=O)(=O)c4ccc(N[C@H](CCN5CCOCC5)CSc5ccccc5)c(S(=O)(=O)C(F)(F)F)c4)cc3)CC2)C1 [Navitoclax] (partner 0.5 µM)
Method in brief: as §1

[4] = compound: CCc1c2c(nc3ccc(OC(=O)N4CCC(N5CCCCC5)CC4)cc13)-c1cc3c(c(=O)n1C2)COC(=O)[C@]3(O)CC [Irinotecan] + CC(=O)c1c(C)c2cnc(Nc3ccc(N4CCNCC4)cn3)nc2n(C2CCCC2)c1=O [Palbociclib] (partner 0.5 µM)
Method in brief: as §1

| Cell Line | relative viability ([1]; first compound 0.02 µM) | relative viability ([1]; first compound 0.06325 µM) | relative viability ([1]; first compound 0.2 µM) | relative viability ([1]; first compound 0.6325 µM) | relative viability ([1]; first compound 2 µM) | relative viability ([2]; first compound 0.1 µM) | relative viability ([2]; first compound 0.3162 µM) | relative viability ([2]; first compound 1 µM) | relative viability ([2]; first compound 3.162 µM) | relative viability ([2]; first compound 10 µM) | relative viability ([3]; first compound 0.6325 µM) | relative viability ([3]; first compound 2 µM) | relative viability ([3]; first compound 6.325 µM) | relative viability ([3]; first compound 20 µM) | relative viability ([4]; first compound 0.6325 µM) | relative viability ([4]; first compound 2 µM) | relative viability ([4]; first compound 6.325 µM) | relative viability ([4]; first compound 20 µM) |
| --- | --- | --- | --- | --- | --- | --- | --- | --- | --- | --- | --- | --- | --- | --- | --- | --- | --- | --- |
| NCI-H2347 | 0.462 | 0.423 | 0.434 | 0.356 | 0.415 | 0.718 | 0.836 | 0.904 | 0.424 | 0.7 | 0.648 | 0.477 | 0.348 | 0.277 | 0.397 | 0.459 | 0.456 | 0.465 |
| LU99A | 0.192 | 0.183 | 0.158 | 0.168 | 0.187 | 0.779 | 0.793 | 0.87 | 0.885 | 0.835 | 0.188 | 0.231 | 0.195 | 0.242 | 0.173 | 0.179 | 0.153 | 0.172 |
| COR-L 105 | 1.22 | 0.744 | 1.14 | 1.12 | 1.05 | 0.909 | 0.61 | 0.648 | 0.858 | 0.595 | 0.721 | 0.766 | 0.529 | 0.463 | 0.407 | 0.395 | 0.454 | 0.3 |
| PC-3 [JPC-3] | 1.07 | – | 0.99 | 1.1 | 1.07 | 0.74 | 0.748 | 0.783 | 0.792 | 0.779 | 0.703 | 0.436 | 0.307 | 0.333 | 0.566 | 0.557 | 0.529 | 0.338 |
| NCI-H2009 | 1.01 | 1.01 | 0.923 | 1.08 | 0.997 | 1.11 | 1.21 | 1.17 | 1.15 | 1.1 | 0.802 | 0.58 | 0.19 | 0.148 | 0.197 | 0.317 | 0.147 | 0.0702 |
| HCC-366 | 0.151 | 0.222 | 0.141 | 0.196 | 0.35 | 1.04 | 1.5 | 1.06 | 1.18 | 1.05 | 0.79 | 0.158 | 0.0415 | 0.0387 | 0.228 | 0.18 | 0.0611 | 0.0667 |
| HARA | 0.289 | 0.212 | 0.227 | 0.264 | 0.229 | 1.19 | 1.14 | 1.15 | 1.16 | 1.13 | 0.658 | 0.106 | 0.123 | 0.111 | 0.26 | 0.184 | 0.225 | 0.232 |
| NCI-H1792 | 0.789 | 0.64 | 0.62 | 0.69 | 0.872 | 0.65 | 0.908 | 0.968 | 0.612 | 0.685 | 0.598 | 0.72 | 0.162 | 0.095 | 0.63 | 0.555 | 0.435 | 0.254 |
| HCC-827 | 0.232 | – | 0.257 | 0.267 | 0.243 | 0.998 | 0.954 | 1.03 | 1.08 | 0.973 | 0.591 | 0.278 | 0.244 | 0.237 | 0.438 | 0.304 | 0.167 | 0.206 |
| LXF-289 | 0.963 | 0.874 | 0.901 | 0.883 | 0.837 | 0.982 | 0.973 | 1.03 | 0.992 | 0.91 | 0.891 | 0.439 | 0.153 | 0.175 | 0.527 | 0.279 | 0.251 | 0.23 |
| NCI-H460 | 0.0659 | 0.0591 | 0.0606 | 0.0625 | 0.0649 | 1.15 | 1.23 | 1.34 | 1.44 | 1.11 | 0.779 | 0.165 | 0.0691 | 0.053 | 0.0549 | 0.128 | 0.0851 | 0.0574 |
| NCI-H2023 | 0.21 | 0.211 | 0.216 | 0.22 | 0.222 | 1.01 | 1.3 | 1.08 | 1.09 | 0.977 | 1 | 0.812 | 0.277 | 0.103 | 0.503 | 0.385 | 0.248 | 0.077 |
| PC-14 | 0.143 | 0.121 | 0.142 | 0.149 | 0.135 | 0.962 | 1.3 | 1.08 | 0.985 | 0.957 | 0.987 | 0.876 | 0.196 | 0.147 | 0.378 | 0.34 | 0.183 | 0.148 |
| NCI-H1734 | 0.423 | 0.403 | 0.393 | 0.398 | 0.431 | 0.867 | 1.49 | 0.911 | 0.899 | 0.803 | 0.618 | 0.376 | 0.156 | 0.188 | – | 0.256 | 0.193 | 0.373 |
| HOP-62 | 0.358 | 0.415 | 0.326 | 0.3 | 0.32 | 1.22 | 1.26 | 1.21 | 1.14 | 1.06 | 0.624 | 0.598 | 0.176 | 0.177 | 0.211 | 0.202 | 0.187 | 0.22 |
| NCI-H2405 | 1.04 | 1.01 | 0.963 | 1.06 | 1.11 | 0.797 | 0.867 | 0.627 | 0.74 | 0.711 | – | 0.697 | 0.212 | 0.091 | – | 0.547 | 0.305 | 0.143 |
| A-427 | 0.936 | 0.976 | 0.941 | 0.946 | 1.05 | 0.944 | 0.868 | 0.997 | – | 0.961 | – | 0.222 | 0.215 | 0.172 | 0.499 | 0.487 | 0.292 | 0.132 |
| LCLC-97TM1 | 0.165 | 0.134 | – | 0.201 | 0.173 | 0.197 | – | 0.336 | 0.399 | 0.396 | 0.254 | 0.256 | 0.218 | 0.163 | 0.114 | 0.0978 | 0.113 | 0.108 |
| NCI-H3122 | 0.201 | 0.201 | 0.195 | 0.188 | 0.198 | 1.03 | 1 | 0.995 | 0.97 | 0.98 | 0.723 | 0.235 | 0.226 | 0.209 | 0.155 | 0.114 | 0.16 | 0.126 |
| RERF-LC-KJ | 0.459 | 0.467 | 0.501 | 0.462 | 0.471 | 1.07 | 1.29 | 1.09 | 1.21 | 0.9 | 0.936 | 1.18 | 0.52 | 0.504 | 1.02 | 0.819 | 0.405 | 0.265 |
| NCI-H2170 | 0.275 | 0.266 | 0.299 | 0.257 | 0.26 | 0.499 | 0.64 | 0.643 | 0.625 | 0.58 | 0.52 | 0.348 | 0.308 | 0.192 | 0.356 | 0.248 | 0.159 | 0.143 |
| HCC-44 | 0.672 | 0.695 | 0.681 | 0.691 | 0.603 | 0.863 | 1.13 | 0.968 | 0.986 | 0.902 | 0.904 | 0.232 | 0.231 | 0.27 | 0.841 | 0.631 | 0.484 | 0.532 |
| HCC-15 | 0.222 | 0.221 | 0.236 | 0.237 | 0.194 | 0.769 | 0.81 | 0.715 | 0.757 | 0.735 | 0.5 | 0.209 | 0.147 | 0.167 | 0.41 | 0.346 | 0.182 | 0.141 |
| SK-LU-1 | 0.974 | 0.944 | 0.929 | 0.625 | 0.956 | 0.789 | 0.817 | 0.841 | 0.831 | 1.03 | 0.225 | 0.334 | 0.296 | 0.263 | 0.35 | 0.354 | 0.299 | 0.336 |
| NCI-H1793 | 0.682 | – | 0.725 | 0.739 | 0.729 | 0.458 | 0.417 | 0.425 | 0.511 | 0.318 | – | 0.447 | 0.347 | 0.664 | – | 0.222 | 0.203 | 0.265 |
| H3255 | 0.56 | 0.49 | 0.571 | 0.582 | 0.565 | 0.489 | 0.396 | 0.598 | 0.5 | 0.237 | 0.352 | 0.279 | 0.158 | 0.227 | 0.304 | 0.301 | 0.292 | 0.336 |
| NCI-H1666 | 0.784 | 0.775 | 0.915 | 0.788 | 0.772 | 0.9 | 1.08 | 0.888 | 0.852 | 0.848 | 0.695 | 0.643 | 0.401 | 0.326 | 0.59 | 0.559 | 0.577 | 0.438 |
| 201T | 0.306 | 0.348 | 0.301 | 0.291 | 0.312 | 1.2 | 1.18 | 1.21 | 1.19 | 1.18 | – | 1.12 | 0.729 | 0.451 | 0.403 | 0.343 | 0.265 | 0.22 |
| LK-2 | 0.329 | 0.263 | 0.239 | 0.335 | 0.258 | 0.962 | 0.883 | 0.93 | 1.07 | 0.914 | 0.858 | 0.754 | 0.406 | 0.255 | 0.594 | 0.72 | 0.227 | 0.245 |
| NCI-H1755 | 0.481 | 0.394 | 0.383 | 0.336 | 0.375 | 1.04 | 1.14 | 1.06 | 1.06 | 1.05 | 0.886 | 0.283 | 0.221 | 0.287 | 0.405 | 0.446 | 0.438 | 0.486 |
